Measurements reported in patent US12491170B2, “Stable treprostinil prodrugs” (United Therapeutics Corporation, priority 2020, dated 2025).
Like-named read-outs stand apart in the source and are kept apart here.

Experiments:
[1] = Stability in liver microsomes, rat; details: for CLint, calculated (in parentheses) / Half-life, calculated (in parentheses) / CLint / Half-life: microsomes; for AUC Mono (treprostinil formed) / CLint / Half-life: rat
[2] = dog
[3] = Stability in cryopreserved hepatocytes, rat; details: for CLint, calculated (in parentheses) / Half-life, calculated (in parentheses) / CLint / Half-life: hepatocytes; for AUC / Mono AUC (treprostinil formed) / CLint / Half-life: rat
[4] = Stability in cryopreserved hepatocytes, dog; details: for AUC / Mono AUC (treprostinil formed) / CLint / Half-life: dog
[5] = Stability in liver microsomes, dog; details: for AUC Mono (treprostinil formed) / CLint / Half-life: dog
[6] = molecular target: T1, prostaglandin D2 (PGD2) receptor 1 (DP1) (Homo sapiens, UniProt Q13258); test: DP1 receptor cAMP agonist assay (HEK293T cells); assay type: cell-based; details: for DP1 Relative to Tre: relative to treprostinil EC50 values, * partial agonists or ambiguous dose-response curves
T1 sequence (Q13258 1-359): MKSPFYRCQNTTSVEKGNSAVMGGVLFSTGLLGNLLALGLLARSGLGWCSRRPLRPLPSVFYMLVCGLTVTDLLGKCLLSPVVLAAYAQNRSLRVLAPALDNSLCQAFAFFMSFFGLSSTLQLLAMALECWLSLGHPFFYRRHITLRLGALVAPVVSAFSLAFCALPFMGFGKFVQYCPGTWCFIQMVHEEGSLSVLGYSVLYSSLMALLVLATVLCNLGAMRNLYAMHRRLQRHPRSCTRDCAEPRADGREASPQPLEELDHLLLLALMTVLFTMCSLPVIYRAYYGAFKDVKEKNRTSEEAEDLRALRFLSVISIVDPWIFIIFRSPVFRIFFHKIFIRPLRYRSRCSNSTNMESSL
Procedure, shortened: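 Agonist-mode cAMP accumulation in cells overexpressing the human receptor (DP1 and EP2 in HEK293T, IP in CHO-K1). Compounds were added at varying concentrations with 0.1% DMSO for 20 min at 37 °C, then cAMP was read by TR-FRET. Dose-responses were fitted to variable-slope sigmoidal curves.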

[7] = Stability in simulated intestinal fluid; assay type: in vitro ADME; details: for Half-life / Percent Remaining 0 min / Percent Remaining 15 min / Percent Remaining 30 min / Percent Remaining 60 min / Percent Remaining 120 min: SIF pH 6.8 with pancreatin, 1 μM, 37° C.
Protocol: Studies were carried out in simulated intestinal fluid (SIF). SIF was prepared by dissolving 6.8 g of KH2PO4 in 250 mL of water, mixing, and then adding 77 mL of 0.2 N NaOH and […] of water. […] DMSO stocks were first prepared for the test articles. […] The vials were kept in a benchtop Thermomixer® for the duration of the experiment. A separate tube was dosed for each time point in each matrix. […] Samples were mixed and then immediately stored at 4° C. until the end of the experiment. After the final time point was sampled, the plate was mixed and then centrifuged at 3000 rpm for 10 minutes.

CCCCCC(CCC1C(OC(=O)OC)CC2Cc3c(cccc3OCC(=O)O)CC21)OC(=O)OC (centres unmarked) [Prodrug LXXI, treprostinil dicarbonate]
CLint, calculated (in parentheses) [1]: 0.575 mL/min/mg protein | Half-life, calculated (in parentheses) [1]: 2.41 min | AUC Mono (treprostinil formed) [1]: 33.5 µmol·min/L | CLint [1]: > 0.139 mL/min/mg protein | Half-life [1]: < 10 min | AUC [2]: 56.21 µmol·min/L | CLint, calculated (in parentheses) [3]: 0.295 mL/min/mg protein | Half-life, calculated (in parentheses) [3]: 1.56 min | AUC [3]: 39.77 µmol·min/L | Mono AUC (treprostinil formed) [3]: 39.8 µmol·min/L | CLint [3]: > 0.0308 mL/min/mg protein | Half-life [3]: < 15 min | AUC [4]: 41.47 µmol·min/L | Mono AUC (treprostinil formed) [4]: 41.5 µmol·min/L | CLint ([4]; hepatocytes): > 0.0308 mL/min/mg protein | Half-life ([4]; hepatocytes): < 15 min | CLint, calculated (in parentheses) ([4]; hepatocytes): 0.187 mL/min/mg protein | Half-life, calculated (in parentheses) ([4]; hepatocytes): 2.47 min | AUC Mono (treprostinil formed) [5]: 56.2 µmol·min/L | CLint ([5]; microsomes): > 0.139 mL/min/mg protein | Half-life ([5]; microsomes): < 10 min | CLint, calculated (in parentheses) ([5]; microsomes): 0.454 mL/min/mg protein | Half-life, calculated (in parentheses) ([5]; microsomes): 3.05 min | DP1 Relative to Tre ([6]; Table 22): 2181x* | DP1 Relative to Tre ([6]; Table 23): 2181x* | Half-life [7]: >120 min | Percent Remaining 0 min ([7]; 0 min): 100% | Percent Remaining 15 min ([7]; 15 min): 96.2% | Percent Remaining 30 min ([7]; 30 min): 100% | Percent Remaining 60 min ([7]; 60 min): 91.9% | Percent Remaining 120 min ([7]; 120 min): 83.5%

CCCCCC(CCC1C(OC(=O)CC)CC2Cc3c(cccc3OCC(=O)O)CC21)OC(=O)CC (centres unmarked) [Prodrug LXX, treprostinil dipropionate]
Trep Concentration 0 min [1]: 0.336 µM | Trep Concentration 10 min [1]: 0.595 µM | Trep Concentration 20 min [1]: 0.764 µM | Trep Concentration 30 min [1]: 0.653 µM | Trep Concentration 60 min [1]: 0.699 µM | Treprostinil Concentration 0 min [1]: 0.336 µM | Treprostinil Concentration 15 min [1]: 0.595 µM | Treprostinil Concentration 30 min [1]: 0.764 µM | Treprostinil Concentration 60 min [1]: 0.653 µM | Treprostinil Concentration 120 min [1]: 0.699 µM | CLint, calculated (in parentheses) [1]: 0.250 mL/min/mg protein | Half-life, calculated (in parentheses) [1]: 5.53 min | AUC Mono (treprostinil formed) [1]: 38.8 µmol·min/L | CLint [1]: > 0.139 mL/min/mg protein | Half-life [1]: < 10 min | AUC [2]: 71.85 µmol·min/L | Trep Concentration (μM) 0 min [3]: 0 µM | Trep Concentration (μM) 15 min [3]: 0.606 µM | Trep Concentration (μM) 30 min [3]: 0.579 µM | Trep Concentration (μM) 60 min [3]: 0.484 µM | Trep Concentration (μM) 120 min [3]: 0.405 µM | Treprostinil Concentration 0 min [3]: 0 µM | Treprostinil Concentration 120 min [3]: 0.405 µM | CLint, calculated (in parentheses) [3]: 0.116 mL/min/mg protein | Half-life, calculated (in parentheses) [3]: 3.97 min | AUC [3]: 56.05 µmol·min/L | Mono AUC (treprostinil formed) [3]: 56.1 µmol·min/L | CLint [3]: > 0.0308 mL/min/mg protein | Half-life [3]: < 15 min | Trep Concentration (μM) 0 min [4]: 0.0959 µM | Trep Concentration (μM) 30 min [4]: 0.597 µM | Trep Concentration (μM) 60 min [4]: 0.511 µM | Trep Concentration (μM) 120 min [4]: 0.445 µM | Treprostinil Concentration 15 min [4]: 0.736 µM | Treprostinil Concentration 120 min [4]: 0.445 µM | AUC [4]: 61.54 µmol·min/L | Mono AUC (treprostinil formed) [4]: 61.5 µmol·min/L | CLint ([4]; hepatocytes): >0.0308 mL/min/mg protein | Half-life ([4]; hepatocytes): <15 min | Trep Concentration 0 min [5]: 1.24 µM | Trep Concentration 10 min [5]: 1.26 µM | Trep Concentration 20 min [5]: 1.24 µM | Trep Concentration 30 min [5]: 1.23 µM | Trep Concentration 60 min [5]: 1.07 µM | Treprostinil Concentration 0 min [5]: 1.24 µM | Treprostinil Concentration 15 min [5]: 1.26 µM | Treprostinil Concentration 30 min [5]: 1.24 µM | Treprostinil Concentration 60 min [5]: 1.23 µM | Treprostinil Concentration 120 min [5]: 1.07 µM | AUC Mono (treprostinil formed) [5]: 71.9 µmol·min/L | CLint ([5]; microsomes): >0.139 mL/min/mg protein | Half-life ([5]; microsomes): <10 min | EC50 Fold Different from Treprostinil, DP1 Receptor ([6]; Table 18, * partial agonists or odd dose-response curves): 410x* | DP1 Relative to Tre ([6]; Table 22): 410x | DP1 Relative to Tre ([6]; Table 23): 410x | Activity at the DP1 receptor compared to treprostinil ([6]; summary of findings): several hundred-fold less active | Half-life [7]: >120 min | Percent Remaining 0 min ([7]; 0 min): 100% | Percent Remaining 15 min ([7]; 15 min): 97.2% | Percent Remaining 30 min ([7]; 30 min): 104% | Percent Remaining 60 min ([7]; 60 min): 93.6% | Percent Remaining 120 min ([7]; 120 min): 86.2% | Formation of Treprostinil, Concentration 0 min ([7]; SIF, prodrug dosed 1 μM, 0 min): 0 µM | Formation of Treprostinil, Concentration 15 min ([7]; SIF, prodrug dosed 1 μM, 15 min): 0 µM | Formation of Treprostinil, Concentration 30 min ([7]; SIF, prodrug dosed 1 μM, 30 min): 0 µM | Formation of Treprostinil, Concentration 60 min ([7]; SIF, prodrug dosed 1 μM, 60 min): 0.00415 µM | Formation of Treprostinil, Concentration 120 min ([7]; SIF, prodrug dosed 1 μM, 120 min): 0.0720 µM
